Measurements from patent publication US6380359B1, “Liposomes comprising peptide antigens derived from X protein of hepatitis B virus” (Mogam Biotechnology Research Institute, priority 1998, dated 2002).
No end group written: not given here.

What was measured:
[1] = molecular target: T1, HLA-A2.1, a human MHC Class I molecule (Homo sapiens, UniProt P04439, D140Y/D185E/D98H/E176V/E277Q/G131W/G231S/I119V/I121R/I166T/I218V/L300P/L318F/N151K/N90K/P208A/P217A/Q86G/Q94H/R138H/R169H/T345S); experiment: Binding of synthetic peptides to MHC Class I molecules at the surface of T2 cell (BB7.2 antibody, fluorocytometry); assay type: cell-based; conditions: peptide 1-100 μg/ml, 37° C., 4 hours; FIG. 1
T1 construct: endogenous in cells; host or cells: T2 cell line
Experimental: Seven different peptides including the peptides as disclosed in Table 1 above which were derived from HBV X protein were synthesized chemically and dissolved in phosphate buffered saline(hereinafter, referred to as “PBS”). In order to investigate whether the peptides can bind to MHC Class I molecules associated with induction of CTL, each peptide was added to T2 cell line in a concentration of 100, 64, 32, 16, 8, 4, 2 and 1 μg/ml, respectively, and reacted at 37° C. for 4 hours. And then, the cells were washed with PBS to remove unreacted peptides, added with BB7.2 antibody against HLA-A2.1, a human MHC Class I molecule, and reacted at 4° C. for 1 hour. The cells were washed with PBS again, added with fluorescein isothiocyanate(FITC)-conjugated anti-mouse immunoglobulin antibody, and reacted at 4° C. for 1 hour. Then, fluorescence of the cells was determined using fluorocytometer(FACScan, BECTON DICKINSON) and the results were shown in FIG. 1.
However, when T2 cells are cultivated in a medium containing peptides which can bind to MHC molecules, the peptides bind to MHC molecules at the surface of T2 cell to increase stability of MHC molecules, which results in increase in expression of MHC molecule. Based on the knowledge, binding of a specific peptide to MHC molecule at the surface of T2 cell can be analyzed by determining degree of binding of BB7.2 antibody to the cell surface.

[2] = test system: T2 cells; experiment: Cytotoxicity of peptide-stimulated blood cells (CTL) against T2 cells sensitized by synthesized peptides, Cr51 release; assay type: cell-based, human; conditions: for Specific cytotoxicity by CTL (%): T2 cells sensitized with 100 μg/ml peptide
Experimental: That is, blood positive to anti-HBV antibody(value obtained by ELISA: 1.0 or more) is collected from common blood donors, and centrifuged to harvest blood cells. The said peptides added in a concentration of 10 μg/ml to leukocytes remained after removing red blood cells from the blood cells, and incubated at 37° C. in a CO2 incubator maintained to contain 5% CO2. At 2 days after culture, 10 unit of interleukin-2 was added to the culture medium and the cells were further cultivated for 3 days. Then, blood cells having the same MHC were inactivated by mitomycin C and added to the culture medium as stimulating cells. And the peptides and interleukin-2 were added to the medium and the cells were further cultivated for 7 days. Then, it was determined whether the blood cells recognize and destruct T2 cells having a certain peptide at their surface, and the results were shown in Table 3 below and FIG. 2, respectively.
Destruction of T2 cell by cultured blood cell was determined as followings: 100 μg/ml of a peptide was added to T2 cells and reacted at 37° C. for 3 hours. Then, the cells were washed sufficiently to remove unreacted peptides, added with radioactive sodium chromate(Cr^51), and reacted at 37° C. for 2 hours in a CO2 incubator. And then, they were washed with RPMI medium sufficiently to remove unreacted sodium chromate, mixed with blood cells washed with PBS in a certain ratio, and reacted at 37° C. for 4 hours in a CO2 incubator. The resultant medium was collected and measured for intensity of gamma ray to determine cytotoxicity of the blood cells against T2 cell, i.e., target cell.

[3] = test system: p815 cell; experiment: Cytotoxicity of T lymphocytes from Balb/C mice immunized with pH-sensitive liposomes comprising HIV peptides, Cr51 release; assay type: in vivo, Balb/C mouse; conditions: mice immunized with pH-sensitive liposomes (POPE/CHOH 7:3) comprising the peptide
Experimental: (§1) In order to investigate whether pH-sensitive liposome as a carrier of peptides can induce CTL response specific to the virus from which the peptides are derived, pH-sensitive liposomes encapsulating synthetic peptides were prepared and cytotoxicity study were carried out in a serial manner. Since the cellular immunity of the pepitides which can bind HLA-A2, a human MHC class I molecule should be investigated employing human body, indirect experiment employing the peptides derived HIV and HCV proteins which can bind mouse MHC Class I molecule(see: Table 4 below), was carried out. In this regard, the pH-sensitive liposome comprising the peptides were obtained employing the phospholipid composition consisting of POPE/CHOH(7:3 in a molar ratio). Then, mice were immunized with the liposomes, T lymphocytes were isolated from the mice, and cytotoxicity of the T lymphocytes after recognition of target cells labelled with Cr^51 was determined.
In case of HIV, Balb/C mouse was immunized with pH-sensitive liposomes comprising R15K or T26K, and at 4 weeks after booster immunization, its spleen was dissected and homogenized in 2 ml of RPMI cell culture medium using a homogenizer. 2 ml of the homogenate thus obtained was added to 2 ml of ficoll and centrifuged at 1,500 rpm for 30 minutes. T lymphocytes located between ficoll and the cell culture medium were separated, added to 15 ml of RPMI-10 cell culture medium, centrifuged at 1,000 rpm, and washed three times with the RPMI-10 medium. The T lymphocytes were diluted to a cell concentration of 5×10^6/ ml into a 24 well-plate, and the immunized peptide antigen was added to a final concentration of 2 μM. Then, the cells were cultured at 37° C. for 3 days in a CO2 incubator containing 5% CO2 and used as effector cells. In case of HCV, 5 week-old C57BL/6 mouse was immunized with liposomes comprising DBL peptide antigen, and T lymphocytes were isolated in the same manner as above and used as effector cells. On the other hand, p815 cell(ATCC TIB64) having MHC Class I same as that of Balb/C mouse was used as a target cell in case of HIV, and RMA cell(see: Hosken, N. A. and Bevan, M. J., J. Exp. Med., 175:719(1992)) or EL4 cell(ATCC TIB39) having MHC Class I same as that of C57BL/6 mouse was used as a target cell in case of HCV.
100 μM of the immunized peptide was added to the respective target cells, reacted at 37° C. for 16 hours, and washed twice with RPMI cell culture medium. Then, radioactive sodium chromate(Cr^51) was added to the cells and reacted at 37° C. for 2 hours in a CO2 incubator. After reaction, the cells were washed sufficiently with RPMI cell culture medium to remove unreacted sodium chromate, mixed with effector cells washed with phosphate buffer solution in various mixing ratios shown in table 5 below, and reacted at 37° C. for 4 hours in a CO2 incubator. The resultant medium was collected and measured for the intensity of gamma ray to determine cytotoxicity of effector cells against target cells(see: Table 5).

[4] = test system: RMA cell or EL4 cell; experiment: Cytotoxicity of T lymphocytes from C57BL/6 mice immunized with pH-sensitive liposomes comprising HCV peptide, Cr51 release; assay type: in vivo, C57BL/6 mouse; conditions: mice immunized with pH-sensitive liposomes (POPE/CHOH 7:3) comprising the peptide
Experimental: as §1
In case of HIV, Balb/C mouse was immunized with pH-sensitive liposomes comprising R15K or T26K, and at 4 weeks after booster immunization, its spleen was dissected and homogenized in 2 ml of RPMI cell culture medium using a homogenizer. 2 ml of the homogenate thus obtained was added to 2 ml of ficoll and centrifuged at 1,500 rpm for 30 minutes. T lymphocytes located between ficoll and the cell culture medium were separated, added to 15 ml of RPMI-10 cell culture medium, centrifuged at 1,000 rpm, and washed three times with the RPMI-10 medium. The T lymphocytes were diluted to a cell concentration of 5×10^6/ ml into a 24 well-plate, and the immunized peptide antigen was added to a final concentration of 2 μM. Then, the cells were cultured at 37° C. for 3 days in a CO2 incubator containing 5% CO2 and used as effector cells. […]
100 μM of the immunized peptide was added to the respective target cells, reacted at 37° C. for 16 hours, and washed twice with RPMI cell culture medium. […] The resultant medium was collected and measured for the intensity of gamma ray to determine cytotoxicity of effector cells against target cells(see: Table 5).

[5] = Ratio of CTL against target cell 5:1
[6] = Ratio of CTL against target cell 10:1
[7] = Ratio of CTL against target cell 25:1

Compound	Specific cytotoxicity by CTL (%) [2, 5] [%]	Specific cytotoxicity by CTL (%) [2, 6] [%]	Specific cytotoxicity by CTL (%) [2, 7] [%]	further results
CLFKDWEEL (Hepatitis B virus) [×6, peptide derived from HBV X protein, position 115-123]	11	16	23	Binding to MHC Class I molecules at the surface of T2 cell [1]: successfully bind; Recognition of peptide by cultured blood cells (CTL) ([2]; blood cells from anti-HBV antibody positive donors): recognized by cultured blood cells
TLPSPSSSA [×2, TLPSPSSSA]	5	10	11	–
CC(C)C[C@H](NC(=O)CNC(=O)[C@H](CC(C)C)NC(=O)[C@@H](NC(=O)[C@H](CCCNC(=N)N)NC(=O)[C@H](CCCCN)NC(=O)[C@H](Cc1c[nH]cn1)NC(=O)[C@H](CC(C)C)NC(=O)[C@@H](N)C(C)C)[C@@H](C)O)C(=O)O [×4, VLHKRTLGL]	8	16	21	–
EIRLKVFVL [×7, EIRLKVFVL]	12	19	24	–
VLCLRPVGA [×1, VLCLRPVGA]	6	11	15	–
HLSLRGLFV [×3, HLSLRGLFV]	10	17	20	–
AMSTTDLEA [×5, AMSTTDLEA]	16	24	31	–
CC[C@H](C)[C@H](NC(=O)[C@H](CCCNC(=N)N)NC(=O)[C@@H](NC(=O)[C@H](CCCNC(=N)N)NC(=O)[C@H](CCCCN)NC(=O)[C@H](CCCNC(=N)N)NC(=O)[C@@H](NC(=O)[C@H](CC(N)=O)NC(=O)[C@H](CC(N)=O)NC(=O)[C@H](CC(N)=O)NC(=O)[C@@H]1CCCN1C(=O)[C@H](CCCNC(=N)N)NC(=O)[C@@H](N)[C@@H](C)O)[C@@H](C)O)[C@@H](C)CC)C(=O)N[C@@H](CCC(N)=O)C(=O)N[C@@H](CCCNC(=N)N)C(=O)NCC(=O)N1CCC[C@H]1C(=O)NCC(=O)N[C@@H](CCCNC(=N)N)C(=O)N[C@@H](C)C(=O)N[C@@H](Cc1ccccc1)C(=O)N[C@H](C(=O)N[C@H](C(=O)N[C@H](C(=O)NCC(=O)N[C@@H](CCCCN)C(=O)O)[C@@H](C)CC)[C@@H](C)O)C(C)C [T26K]	–	–	–	Specific cytotoxicity by CTL (%) ([3]; target cell:effector cell 1:10): 55%; Specific cytotoxicity by CTL (%) ([3]; target cell:effector cell 1:20): 80%; Specific cytotoxicity by CTL (%) ([3]; target cell:effector cell 1:30): 87%
DLMGYIPL [D8L, DLMGYIPL]	–	–	–	Specific cytotoxicity by CTL (%) ([4]; target cell:effector cell 1:10): 5.5%; Specific cytotoxicity by CTL (%) ([4]; target cell:effector cell 1:20): 18%; Specific cytotoxicity by CTL (%) ([4]; target cell:effector cell 1:30): 30%
CC[C@H](C)[C@H](NC(=O)[C@@H](NC(=O)[C@@H](NC(=O)[C@H](Cc1ccccc1)NC(=O)[C@H](C)NC(=O)[C@H](CCCNC(=N)N)NC(=O)CNC(=O)[C@@H]1CCCN1C(=O)CNC(=O)[C@H](CCCNC(=N)N)NC(=O)[C@H](CCC(N)=O)NC(=O)[C@@H](NC(=O)[C@@H](N)CCCNC(=N)N)[C@@H](C)CC)C(C)C)[C@@H](C)O)C(=O)NCC(=O)N[C@@H](CCCCN)C(=O)O [R15K, RIQRGPGRAFVTIGK]	–	–	–	Specific cytotoxicity by CTL (%) ([3]; target cell:effector cell 1:10): 7.5%; Specific cytotoxicity by CTL (%) ([3]; target cell:effector cell 1:20): 15%; Specific cytotoxicity by CTL (%) ([3]; target cell:effector cell 1:30): 25%
